The text below walks through data of patent US5962640A, “Methods for preparing novel dipeptide compounds or pharmacuetically acceptable salts thereof” (Japan Energy Corporation, priority 1995, dated 1999).

In the experiment the target is T1, Recombinant HIV protease (Human immunodeficiency virus type 1 group M subtype B, UniProt P04585).
T1 construct: Recombinant HIV protease
Kind of experiment: HIV protease inhibitory activity (cleavage of synthetic hepta-peptide, HPLC). Format: biochemical. The conditions noted are these: for inhibition at 0.05 µM: concentration 50 nM (final), 37° C., 60 min; for inhibition at 5 µM: read-out: HIV protease inhibitory activity (%). The method, then:
Recombinant HIV protease (Biochemistry, 250 (9), 264 (1990)) and synthetic hepta-peptide (H-Ser-Gln-Asn-Tyr-Pro-Ile-Val-OH/trifluoroacetic acid salt) were used for assay of protease activity. Peptide fragment H-Pro-Ile-Val-OH formed by cleavage between -Tyr . . . Pro of said substrate after a reaction in the presence of various concentration of tested compound at 37° C. for 60 min. was determined by reversed phase HPLC and the inhibitory rate was calculated (referred to Japanese laid-open unexamined patent, No. 170722/1993).
The concentration of tested compound represents the final concentration thereof of the reaction mixture.

With `Cc1c(O)cccc1C(=O)N[C@@H](Cc1ccccc1)[C@H](O)C(=O)N1CSC(C)(C)[C@H]1C(=O)NCc1ccccc1Cl` [Compound of example 45, (R)-N-(2-chlorobenzyl)-3-[(2S,3S)-3-(3-hydroxy-2-methylbenzoyl)amino-2-hydroxy-4-phenylbutanoyl]-5,5-dimethylthiazolidine-4-carboxamide], the inhibition at 0.05 µM came out at 94.5% and the inhibition at 5 µM is over 99%.
As to `CC(C)(C)NC(=O)[C@@H]1CSCN1C(=O)[C@@H](O)[C@H](Cc1ccccc1)NC(=O)c1ccc(O)cc1` [Compound of example 7, (R)-N-tert-butyl-3-[(2S,3S)-2-hydroxy-3-[4-hydroxybenzoyl]amino-4-phenylbutanoyl]-1,3-thiazolidine-4-carboxamide], the inhibition at 5 µM stood at 62.2%.
On the same count and under the same terms, next, `Cc1ccccc1C(=O)N[C@@H](Cc1ccccc1)[C@H](O)C(=O)N1CSC[C@H]1C(=O)NC(C)(C)C` [Compound of example 2, (R)-N-tert-butyl-3-[(2S,3S)-2-hydroxy-3-[2-methylbenzoyl]amino-4-phenylbutanoyl]-1,3-thiazolidine-4-carboxamide]: 74.9%.
For the compound `Cc1ccccc1CNC(=O)[C@H]1NC[C@@H](Cl)C1C(=O)[C@@H](O)[C@H](Cc1ccccc1)NC(=O)c1cccc(O)c1C` (stereo partly drawn) [Compound of example 41, (2S,4S)-N-(2-methylbenzyl)-3-[(2S,3S)-3-(3-hydroxy-2-methylbenzoyl)amino-2-hydroxy-4-phenylbutanoyl]-4-chloropyrrolidine-2-carboxamide], the inhibition at 0.05 µM came to 76.8% and the inhibition at 5 µM is 97.7%.
For `CC(C)(C)NC(=O)[C@@H]1CSCN1C(=O)[C@@H](O)[C@H](Cc1ccccc1)NC(=O)c1ccc(C(=O)O)cc1` [Compound of example 13, (R)-N-tert-butyl-3-[(2S,3S)-2-hydroxy-3-[4-carboxybenzoyl]amino-4-phenylbutanoyl]-1,3-thiazolidine-4-carboxamide], the inhibition at 5 µM amounted to 70.4%.
Turning to `CC(C)(C)NC(=O)[C@@H]1CSCN1C(=O)[C@@H](O)[C@H](Cc1ccccc1)NC(=O)c1ccccc1` [Compound of example 1, (R)-N-tert-butyl-3-[(2S,3S)-2-hydroxy-3-[benzoyl]amino-4-phenylbutanoyl]-1,3-thiazolidine-4-carboxamide], the inhibition at 5 µM came out at 52%.
Consider `Cc1cccc(C(=O)N[C@@H](Cc2ccccc2)[C@H](O)C(=O)N2CSC[C@H]2C(=O)NC(C)(C)C)c1C` [Compound of example 26, (R)-N-tert-butyl-3-[(2S,3S)-2-hydroxy-3-(2,3-dimethylbenzoyl]amino-4-phenylbutanoyl]-1,3-thiazolidine-4-carboxamide], for which the inhibition at 5 µM was 77.9%.
Turning to `CC(C)(C)NC(=O)[C@@H]1CSCN1C(=O)[C@@H](O)[C@H](Cc1ccccc1)NC(=O)c1cccc(O)c1` [Compound of example 6, (R)-N-tert-butyl-3-[(2S,3S)-2-hydroxy-3-[3-hydroxybenzoyl]amino-4-phenylbutanoyl]-1,3-thiazolidine-4-carboxamide], the inhibition at 5 µM stood at 76%.
`CC(C)(C)NC(=O)[C@@H]1CSCN1C(=O)[C@@H](O)[C@H](Cc1ccccc1)NC(=O)c1cc(O)cc(O)c1` [Compound of example 29, (R)-N-tert-butyl-3-[(2S,3S)-2-hydroxy-3-(3,5-dihydroxybenzoyl)amino-4-phenylbutanoyl]-1,3-thiazolidine-4-carboxamide]: the inhibition at 5 µM amounted to 75.6%.
The same measure, in the same setting: in the case of `Cc1c(N)cccc1C(=O)N[C@@H](Cc1ccccc1)[C@H](O)C(=O)N1CSC[C@H]1C(=O)NC(C)(C)C` [Compound of example 25, (R)-N-tert-butyl-3-[(2S,3S)-2-hydroxy-3-[3-amino-2-methylbenzoyl]amino-4-phenylbutanoyl]-1,3-thiazolidine-4-carboxamide] it was 81.3%.
